Drawing on ChEMBL document CHEMBL2074412, “Cloning of the human kidney PAH transporter: narrow substrate specificity and regulation by protein kinase C” (Am J Physiol, 1999), this text covers Activity for 5 compounds.

Common to all, as to format: functional, cell-based
Series [1] deals with T1, Solute carrier family 22 member 6 (Homo sapiens, UniProt Q4U2R8).
T1 sequence (Q4U2R8 whole entry): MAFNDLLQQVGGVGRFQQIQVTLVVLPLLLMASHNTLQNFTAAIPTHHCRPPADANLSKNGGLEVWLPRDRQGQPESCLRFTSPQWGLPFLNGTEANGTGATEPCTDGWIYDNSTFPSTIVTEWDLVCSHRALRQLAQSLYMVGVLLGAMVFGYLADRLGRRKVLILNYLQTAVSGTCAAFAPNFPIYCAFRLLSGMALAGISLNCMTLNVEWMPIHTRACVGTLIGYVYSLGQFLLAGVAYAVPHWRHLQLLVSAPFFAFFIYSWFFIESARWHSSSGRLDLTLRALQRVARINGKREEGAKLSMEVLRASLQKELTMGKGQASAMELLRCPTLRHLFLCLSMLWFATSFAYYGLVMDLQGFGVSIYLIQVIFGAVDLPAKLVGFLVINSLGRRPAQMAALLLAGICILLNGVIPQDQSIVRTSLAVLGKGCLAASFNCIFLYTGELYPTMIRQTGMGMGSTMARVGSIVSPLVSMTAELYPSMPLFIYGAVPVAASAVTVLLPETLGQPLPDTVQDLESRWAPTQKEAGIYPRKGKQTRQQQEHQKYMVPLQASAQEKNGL
Description: TP_TRANSPORTER: inhibition of PAH uptake (Furosemide: 200 uM) in OAT1-expressing HeLa cells.

For series [2], the target named is T1, Solute carrier family 22 member 6. As to the kind of experiment: TP_TRANSPORTER: uptake in OAT1-expressing HeLa cells.
Series [3] has the same target. Description: TP_TRANSPORTER: inhibition of PAH uptake (alpha,-KG: 200 uM) in OAT1-expressing HeLa cells.
Series [4] shares this target. As to the kind of experiment: TP_TRANSPORTER: inhibition of PAH uptake (PAH: 0.4 uM, Phenylbutazone: 200 uM) in OAT1-expressing HeLa cells.
Series [5] shares this target. As to the kind of experiment: TP_TRANSPORTER: inhibition of PAH uptake (Anandamide: 100 uM) in OAT1-expressing HeLa cells.
Series [6] shares this target. Description: TP_TRANSPORTER: inhibition of PAH uptake (Indomethacin: 200 uM) in OAT1-expressing HeLa cells.

Take `NS(=O)(=O)c1cc(C(=O)O)c(NCc2ccco2)cc1Cl` [FUROSEMIDE]: the Activity result in series [1] was “inhibitor [(at a rough estimate) 50 % of control]”.

As to `O=C(O)CCC(=O)C(=O)O` [ALPHA-KETOGLUTARIC ACID], the Activity result in series [2] is “substrate [+]”; in series [3], “inhibitor [(at a rough estimate) 35 % of control]”. On to `O=C1OC2(c3ccc(O)cc3Oc3cc(O)ccc32)c2ccccc21` [FLUORESCEIN], for which, in series [4], the Activity entry is “inhibitor [(at a rough estimate) 20 % of control]”. As to `CCCCC/C=C\C/C=C\C/C=C\C/C=C\CCCC(=O)NCCO` [ANANDAMIDE], the Activity result in series [5] was “is not an inhibitor [-]”.

In the case of `COc1ccc2c(c1)c(CC(=O)O)c(C)n2C(=O)c1ccc(Cl)cc1` [INDOMETHACIN], in series [6], the Activity result is “inhibitor [(at a rough estimate) 20 % of control]”.
